Experimental data: US20230265151A1, “GIP/GLP1 CO-AGONIST COMPOUNDS” (priority 2020, published 2023)
Where two headings read alike, the source gives them in different places.

Assays:
hGCGR = molecular target: T1, hGCGR (Homo sapiens, UniProt P47871); assay: Functional cAMP formation (HTRF) in HEK-293 clonal cells expressing hGCGR, 0.1% bovine casein, without or with 1.0% human serum albumin; type: cell-based; settings: cAMP, incubated at 37° C., 0.1% bovine casein (no human serum albumin), geometric mean
T1 construct: expressed in transfected cells
Procedure: (§1) After a 30-min incubation at 37° C., the resulting increase in intracellular cAMP is quantitatively determined using a CisBio cAMP Dynamic 2 HTRF Assay Kit (62AM4PEJ). Briefly, cAMP levels within the cell are detected by adding the cAMP-d2 conjugate in cell lysis buffer (10 µL) followed by the antibody anti-cAMP-Eu^3+-Cryptate, also in cell lysis buffer (10 µL). The resulting competitive assay is incubated for at least 60 min at room temperature, and then is detected using a PerkinElmer Envision® instrument with excitation at 320 nm and emission at 665 nm and 620 nm. Envision units (emission at 665 nm/620 nm* 10,000) are inversely proportional to the amount of cAMP present and are converted to nM cAMP per well us-ing a cAMP standard curve. […] A relative EC50 value and percent top (Emax) are derived by non-linear regression analysis using the percent maximal response vs. the concentration of peptide added, fitted to a four-parameter logistic equation.

hGIPR = molecular target: T2, hGIPR (Homo sapiens, UniProt P48546); assay: Functional cAMP formation (HTRF) in HEK-293 clonal cells expressing hGIPR, 0.1% bovine casein, without or with 1.0% human serum albumin; type: cell-based; settings: for Emax: 37° C., 0.1% bovine casein, arithmetic mean; for EC50: cAMP, incubated at 37° C., 0.1% bovine casein (no human serum albumin), geometric mean
T2 construct: expressed in transfected cells
T2 sequence (P48546 22-466): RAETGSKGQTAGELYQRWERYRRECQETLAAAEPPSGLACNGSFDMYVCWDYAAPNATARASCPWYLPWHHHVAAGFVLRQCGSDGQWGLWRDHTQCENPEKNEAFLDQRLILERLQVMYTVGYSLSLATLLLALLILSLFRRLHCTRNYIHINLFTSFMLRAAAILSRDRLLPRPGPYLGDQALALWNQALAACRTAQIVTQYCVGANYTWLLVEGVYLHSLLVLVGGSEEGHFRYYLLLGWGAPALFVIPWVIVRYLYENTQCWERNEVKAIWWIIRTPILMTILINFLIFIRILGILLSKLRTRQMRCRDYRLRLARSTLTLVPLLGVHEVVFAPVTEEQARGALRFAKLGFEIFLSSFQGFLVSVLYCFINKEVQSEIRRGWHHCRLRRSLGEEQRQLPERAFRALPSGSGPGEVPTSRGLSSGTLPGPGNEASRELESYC
Procedure: as §1

[1] = read-out: hGCGR EC50, nM (SEM, n)
[2] = HEK293, percent of maximal response to GIP(1-42)NH2, read-out: hGIPR Emax, % ± SEM
[3] = read-out: hGIPR EC50, nM (SEM, n)

T1 sequence (P47871 26-477): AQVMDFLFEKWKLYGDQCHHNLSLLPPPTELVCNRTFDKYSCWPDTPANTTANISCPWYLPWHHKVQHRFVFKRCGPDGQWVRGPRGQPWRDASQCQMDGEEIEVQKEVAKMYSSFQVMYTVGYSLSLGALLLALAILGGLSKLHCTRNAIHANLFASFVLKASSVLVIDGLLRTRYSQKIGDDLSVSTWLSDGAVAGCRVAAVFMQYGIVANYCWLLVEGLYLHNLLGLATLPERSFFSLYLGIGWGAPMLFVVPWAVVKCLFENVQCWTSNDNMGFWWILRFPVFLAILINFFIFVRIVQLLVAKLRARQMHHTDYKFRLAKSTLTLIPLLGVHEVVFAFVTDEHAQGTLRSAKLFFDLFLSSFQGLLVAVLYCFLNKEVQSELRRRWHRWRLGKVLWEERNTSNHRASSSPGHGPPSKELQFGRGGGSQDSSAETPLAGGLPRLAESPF

Row | SMILES | EC50 (hGCGR; [1]) | Emax (hGIPR; [2]) | EC50 (hGIPR; [3]) | EC50 (hGCGR; hGCGR EC50, nM (SEM, n)) | Emax (hGIPR; HEK293, read-out: hGIPR Emax, % ± SEM, percent of maximal response to GIP(1-42)NH2) | EC50 (hGIPR; hGIPR EC50, nM (SEM, n))
1 | CC[C@H](C)[C@H](NC(=O)[C@H](CC(C)C)NC(=O)[C@](C)(Cc1ccc(O)cc1)NC(=O)[C@@H](CCC(=O)O)NC(=O)[C@@H](NC(=O)[C@H](Cc1ccccc1)NC(=O)[C@H](CCC(=O)O)NC(=O)C(C)(C)NC(=O)[C@H](CCC(N)=O)NC(=O)[C@H](C)NC(=O)[C@H](CCCCNC(=O)COCCOCCNC(=O)COCCOCCNC(=O)CC[C@H](NC(=O)CCCc1ccc(C(C)(C)C)cc1)C(=O)O)NC(=O)[C@H](CCCN)NC(=O)[C@H](CC(=O)O)NC(=O)[C@H](CC(C)C)NC(=O)[C@](C)(CC(C)C)NC(=O)[C@@H](NC(=O)C(C)(C)NC(=O)[C@@H](NC(=O)[C@H](CC(=O)O)NC(=O)[C@H](CO)NC(=O)[C@@H](NC(=O)[C@](C)(Cc1ccccc1)NC(=O)[C@@H](NC(=O)CNC(=O)[C@H](CCC(=O)O)NC(=O)C(C)(C)NC(=O)[C@@H](N)Cc1ccc(O)cc1)[C@@H](C)O)[C@@H](C)O)C(C)C)[C@@H](C)CC)[C@@H](C)CC)C(=O)N[C@@H](CCC(=O)O)C(=O)NCC(=O)NCC(=O)N[C@@H](CCCCNC(=O)COCCOCCNC(=O)COCCOCCNC(=O)CC[C@H](NC(=O)CCCc1ccc(C(C)(C)C)cc1)C(=O)O)C(=O)N[C@@H](CO)C(=O)N[C@@H](CO)C(=O)NCC(=O)N[C@@H](C)C(=O)N1CCC[C@H]1C(=O)N1CCC[C@H]1C(=O)N1CCC[C@H]1C(=O)N[C@@H](CO)C(N)=O [Example 178] | > 9950 nM | 105% | 0.11 nM |  |  | 
2 | CC[C@H](C)[C@H](NC(=O)[C@H](CC(C)C)NC(=O)[C@](C)(Cc1ccc(O)cc1)NC(=O)[C@@H](CCC(=O)O)NC(=O)[C@@H](NC(=O)[C@H](Cc1ccccc1)NC(=O)[C@H](CCC(=O)O)NC(=O)C(C)(C)NC(=O)[C@H](CCC(N)=O)NC(=O)[C@H](C)NC(=O)[C@H](CCCCNC(=O)COCCOCCNC(=O)COCCOCCNC(=O)CC[C@H](NC(=O)CCCCCCCCCCCCC(=O)O)C(=O)O)NC(=O)[C@H](CCCN)NC(=O)[C@H](CC(=O)O)NC(=O)[C@H](CC(C)C)NC(=O)[C@](C)(CC(C)C)NC(=O)[C@@H](NC(=O)[C@H](CO)NC(=O)[C@H](Cc1ccco1)NC(=O)[C@H](CC(=O)O)NC(=O)[C@H](CO)NC(=O)[C@@H](NC(=O)[C@](C)(Cc1ccccc1F)NC(=O)[C@@H](NC(=O)CNC(=O)[C@H](CCC(=O)O)NC(=O)C(C)(C)NC(=O)[C@@H](N)Cc1ccc(O)cc1)[C@@H](C)O)[C@@H](C)O)[C@@H](C)CC)[C@@H](C)CC)C(=O)N[C@@H](CCC(=O)O)C(=O)NCC(=O)NCC(=O)N[C@@H](CCCCNC(=O)COCCOCCNC(=O)COCCOCCNC(=O)CC[C@H](NC(=O)CCCCCCCCCCCCC(=O)O)C(=O)O)C(=O)N[C@@H](CO)C(=O)N[C@@H](CO)C(=O)NCC(=O)N[C@@H](C)C(=O)N1CCC[C@H]1C(=O)N1CCC[C@H]1C(=O)N1CCC[C@H]1C(=O)N[C@@H](CO)C(N)=O [Example 143] | > 9950 nM | 95% | 0.022 nM |  |  | 
3 | CC[C@H](C)[C@H](NC(=O)[C@H](CC(C)C)NC(=O)[C@](C)(Cc1ccc(O)cc1)NC(=O)[C@H](CCCCNC(=O)COCCOCCNC(=O)COCCOCCNC(=O)COCCOCCNC(=O)CC[C@H](NC(=O)CCCCCCCCCCCCC(=O)O)C(=O)O)NC(=O)[C@@H](NC(=O)[C@H](Cc1ccccc1)NC(=O)[C@H](CCC(=O)O)NC(=O)C(C)(C)NC(=O)[C@H](CCC(N)=O)NC(=O)[C@H](C)NC(=O)[C@H](CCCCNC(=O)COCCOCCNC(=O)COCCOCCNC(=O)COCCOCCNC(=O)CC[C@H](NC(=O)CCCCCCCCCCCCC(=O)O)C(=O)O)NC(=O)[C@H](CCCN)NC(=O)[C@H](CC(=O)O)NC(=O)[C@H](CC(C)C)NC(=O)[C@](C)(CC(C)C)NC(=O)[C@@H](NC(=O)[C@H](CO)NC(=O)[C@H](Cc1ccncc1)NC(=O)[C@H](CC(=O)O)NC(=O)[C@H](CO)NC(=O)[C@@H](NC(=O)[C@](C)(Cc1ccccc1F)NC(=O)[C@@H](NC(=O)CNC(=O)[C@H](CCC(=O)O)NC(=O)C(C)(C)NC(=O)[C@@H](N)Cc1ccc(O)cc1)[C@@H](C)O)[C@@H](C)O)[C@@H](C)CC)[C@@H](C)CC)C(=O)N[C@@H](CCC(=O)O)C(=O)NCC(=O)NCC(=O)N1CCC[C@H]1C(=O)N[C@@H](CO)C(=O)N[C@@H](CO)C(=O)NCC(=O)N[C@@H](C)C(=O)N1CCC[C@H]1C(=O)N1CCC[C@H]1C(=O)N1CCC[C@H]1C(=O)N[C@@H](CO)C(N)=O [Example 80] |  |  |  | > 9950 nM | 92.4 ± 1.14% | 0.0245 nM
4 | CC[C@H](C)[C@H](NC(=O)[C@H](CC(C)C)NC(=O)[C@](C)(Cc1ccc(O)cc1)NC(=O)[C@@H](CCC(=O)O)NC(=O)[C@@H](NC(=O)[C@H](Cc1ccccc1)NC(=O)[C@H](CCC(=O)O)NC(=O)C1(NC(=O)[C@H](CCC(N)=O)NC(=O)[C@H](C)NC(=O)[C@H](CCCCNC(=O)COCCOCCNC(=O)COCCOCCNC(=O)CC[C@H](NC(=O)CCCCCCCCCCCCC(=O)O)C(=O)O)NC(=O)[C@H](CCCN)NC(=O)[C@H](CC(=O)O)NC(=O)[C@H](CC(C)C)NC(=O)[C@](C)(CC(C)C)NC(=O)[C@@H](NC(=O)[C@H](CO)NC(=O)[C@H](Cc2ccncc2)NC(=O)[C@H](CC(=O)O)NC(=O)[C@H](CO)NC(=O)[C@@H](NC(=O)[C@](C)(Cc2ccccc2F)NC(=O)[C@@H](NC(=O)CNC(=O)[C@H](CCC(=O)O)NC(=O)C(C)(C)NC(=O)[C@@H](N)Cc2ccc(O)cc2)[C@@H](C)O)[C@@H](C)O)[C@@H](C)CC)CCCCC1)[C@@H](C)CC)C(=O)N[C@@H](CCC(=O)O)C(=O)NCC(=O)NCC(=O)N[C@@H](CCCCNC(=O)COCCOCCNC(=O)COCCOCCNC(=O)CC[C@H](NC(=O)CCCCCCCCCCCCC(=O)O)C(=O)O)C(=O)N[C@@H](CO)C(=O)N[C@@H](CO)C(=O)NCC(=O)N[C@@H](C)C(=O)N1CCC[C@H]1C(=O)N1CCC[C@H]1C(=O)N1CCC[C@H]1C(=O)N[C@@H](CO)C(N)=O [Example 171] | > 9950 nM | 95.3% | 0.0389 nM |  |  | 
5 | CC[C@H](C)[C@H](NC(=O)[C@H](CC(C)C)NC(=O)[C@](C)(Cc1ccc(O)cc1)NC(=O)[C@@H](CCC(=O)O)NC(=O)[C@@H](NC(=O)[C@H](Cc1ccccc1)NC(=O)[C@H](CCC(=O)O)NC(=O)C(C)(C)NC(=O)[C@H](CCC(N)=O)NC(=O)[C@H](C)NC(=O)[C@H](CCCCNC(=O)COCCOCCNC(=O)COCCOCCNC(=O)CC[C@H](NC(=O)CCCCCCOc1ccc(C(=O)O)cc1)C(=O)O)NC(=O)[C@H](CCCN)NC(=O)[C@H](CC(=O)O)NC(=O)[C@H](CC(C)C)NC(=O)[C@](C)(CC(C)C)NC(=O)[C@@H](NC(=O)[C@H](CO)NC(=O)[C@H](Cc1ccncc1)NC(=O)[C@H](CC(=O)O)NC(=O)[C@H](CO)NC(=O)[C@@H](NC(=O)[C@](C)(Cc1ccccc1F)NC(=O)[C@@H](NC(=O)CNC(=O)[C@H](CCC(=O)O)NC(=O)C(C)(C)NC(=O)[C@@H](N)Cc1ccc(O)cc1)[C@@H](C)O)[C@@H](C)O)[C@@H](C)CC)[C@@H](C)CC)C(=O)N[C@@H](CCC(=O)O)C(=O)NCC(=O)NCC(=O)N[C@@H](CCCCNC(=O)COCCOCCNC(=O)COCCOCCNC(=O)CC[C@H](NC(=O)CCCCCCOc1ccc(C(=O)O)cc1)C(=O)O)C(=O)N[C@@H](CO)C(=O)N[C@@H](CO)C(=O)NCC(=O)N[C@@H](C)C(=O)N1CCC[C@H]1C(=O)N1CCC[C@H]1C(=O)N1CCC[C@H]1C(=O)N[C@@H](CO)C(N)=O [Example 125] | > 9950 nM | 94.4% | 0.0547 nM |  |  | 
